Entries after “also recorded” stand apart in the source; their conditions may differ.
Tests used:
[1] = tested on: Th1-type / Th2-type response; details: literature cited in background; cited from earlier work
CD19+ B cells = assay: CFSE proliferation assay of CD19+ B cells after interaction with Ova/adjuvant-matured bone marrow derived DCs (APC); format: cell-based, mice; details: FIG. 3A; for capacity to induce antigen specific CD19+ B cell proliferation: DCs restimulated with Ovalbumin + 10 μg compound for 24 h, interaction with APC for 5 days; for toxicity against B cells: effect not comparable to adjuvant controls
Protocol: FIG. 3A: Cell proliferation tracked by CFSE dilution of B cells after interaction with matured Antigen Presenting Cells (APC). With every cell division, the CFSE signal strength is approximately halved. The observed cell numbers indicate the ratio of proliferating viable CD19+ B cells.
(§1) In order to assess the properties of the inventive compounds in antigen-specific T and B cell stimulation, the compounds were administered to cultured bone marrow cells in a CFSE assay.
(§2) Briefly, femurs and Tibiae of female 4-12 weeks old C57Bl6 (or BALB/c for TCR HA) were removed and purified from the surrounding muscle tissue (Kleenex tissues). Intact Bones were left in 70% ethanol for 2-5 min for disinfection. Both ends were cut with scissors and the bone marrow were flushed with PBS using a syringe with a 0.45 mm diameter needle, clusters were disintegrated by vigorous pipetting.
(§3) In order to obtain activated antigen presenting dendritic cells (DCs), bone marrow cells were cultured with GM-CSF. On Day 0, cells were seeded in a concentration of 2×10^6 cells per 100 mm dish (bacteriological petri dishes) in 10 ml RPMI-10 (100 U Pen/100 μg Strept/2 mM Glutamin/50 μm ß-Mercaptoethanol/10% FCS heat-inactivated and filtered 0.22 μm Filter) containing 200 Units GM-CSF. On Day 3 another 10 ml RPMI-10 containing 200 U GM-CSF were added to the plates. On Day 6 half of the culture supernatants (10 ml) were collected, centrifuged and the cell pellet resuspended in 10 ml fresh RPMI-10/200 U GM-CSF and given back into the original plates.
(§4) Subsequently, the DCs were incubated with Ovalbumin (as antigen) alone or co-administered with known adjuvants, such as α-GalCerMPEG, aßGalCerMPEG or TLR2/6 ligand (BPPcysMPEG), or the novel phytosphingosine derivatives of the present invention. The activation of DCs was controlled by FACS analysis of different CD markers, such as CD40, CD54, CD80, CD86, CD83, MHCI and MHCII.
(§5) The effect of the compounds of the present invention was then ascertained via co-incubation of naïve T or B cells, obtained from mice (OTI or OTII mice) with previous exposure to the Ova antigen, with DCs that had been treated with the compounds of the invention.
CFSE staining of the CD4+ or CD8+ naïve T cells is then carried out according to standard procedures. Subsequently, 2-5×10^4 DCs (as mature antigen presenting cells APCs) are incubated with 4×10^5 CFSE+ T cells (OTI or OTII) per well (ratio DC/T cells is […]). A CFSE proliferation assay is then conducted, using on Day +5 or on Day +7 a FACS analysis (CFSE/LD/CD4/CD8/CD19/Thy1.1), providing a cell count for the desired cell type based on CFSE. With every cell division, the CFSE signal strength is approximately halved. The cells marked with CFSE can therefore be used to determine the proliferation of CD19+ B cells, CD4+ or CD8+ T cells in response to treatment with activated DCs, that were treated with or without the compounds of the invention.
As is shown in FIG. 3A, cell proliferation of B cells is tracked by CFSE dilution after interaction with APCs. With every cell division, the CFSE signal strength is approximately halved. Therefore, the compounds of the invention show an effect on inducing antigen specific CD19+ cell proliferation.
On day −1, mature DCs were restimulated with Ovalbumin (antigen) co-administered with 10 μg of the different novel phytosphingosine derivatives (0964-1917) or with positive controls (α-GalCerMPEG, aßGalCerMPEG, CDA or BPPcysPEGdef) for 24 h.

splenocytes = assay: Unspecific proliferation assay of splenocytes ([3H]thymidine incorporation); format: cell-based, mice; details: for induction of unspecific proliferation in splenocytes: summary statement; for Stimulation index (SI): splenocytes restimulated 96 h with 1, 10 and 20 μg/ml compound, ratio of [3H]-thymidine uptake of stimulated versus non-stimulated samples, FIG. 2E/2F
Protocol: FIG. 2: Analysis of unspecific proliferative responses of murine cells stimulated without or with enhanced concentrations of the Phytosphingosine-compounds. Splenocytes from mice were re-stimulated for 96 h with different concentrations of adjuvant (1, 10 and 20 μg/ml). The results are presented by are expressed (A-C) as counts per minute (cpm) and (D-F) stimulation index (SI) being the ratio of [^3H]-thymidine uptake of stimulated versus non-stimulated samples. (A) and (D) show data for α-GalCer controls, (B) and (E) show data for IPB1901-1910, and (C) and (F) show data for IPB1911-1917.
In order to assess the properties of the inventive compounds in antigen-unspecific immune response stimulation the compounds were administered to splenocytes in an established proliferation assay.
For the proliferation assay, splenocytes (5×10^6 cells/ml) are seeded at 100 μl per well in a U-bottomed 96-well microtiter plate (Sarstedt Inc., Newton, N.C.) and cultured in quadruplicates 4 days in the presence of enhanced concentrations of adjuvant (1, 10 and 20 μg/ml)), 5 μg/ml of Concanavalin A (max); or medium alone. Eighteen hours before harvesting, 1 μCi of [3H]thymidine (Amersham International, Freiburg, Germany) is added to each well. Cells are harvested on paper filters (Filtermat A; Wallac, Freiburg, Germany) using a cell harvester (Inotech, Wohlen, Switzerland) and the incorporation of [3H] thymidine into the DNA of proliferating cells is determined using a scintillation counter (Wallac 1450, Micro-Trilux).

CD8+ T cells = assay: CFSE proliferation assay of CD8+ T cells after interaction with Ova/adjuvant-matured bone marrow derived DCs (APC); format: cell-based, mice; details: for stimulating effect of CD8+ T cells versus controls with only antigen Ova: CFSE loss up to 7 days, DCs activated with Ova + 10 μg compound, FIG. 4C/4D
Source text: FIG. 3C: Cell proliferation tracked by CFSE dilution of CD8+ T cells after interaction with matured Antigen Presenting Cells (APC). With every cell division, the CFSE signal strength is approximately halved. The shown cell numbers indicate the ratio of proliferated live CD8+ T cells
(§6) FIG. 4: Effect after treatment with IPB 0964-1917—Cell proliferation tracked by CFSE loss of T cells after interaction with matured Antigen Presenting Cells (APC). With every cell division, the CFSE signal strength is reduced. The shown cell numbers indicate the ratio of proliferating T and B cells (7 steps are shown). (A) Numbers of CD4+ T cells are shown at different proliferation steps up to 7 days measuring the loss of CFSE. Naïve cells were treated with one of IPB1901-1912 together with DCs activated with Ova prior to the CFSE assay. (B) Numbers of CD4+ T cells are shown at different proliferation steps up to 7 days measuring the loss of CFSE. Naïve cells were treated with one of IPB2033-2044 together with DCs activated with Ova prior to the CFSE assay. (C) Numbers of CD8+ T cells are shown at different proliferation steps up to 7 days measuring the loss of CFSE. Naïve cells were treated with one of IPB1901-1912 together with DCs activated with Ova prior to the CFSE assay. (D) Numbers of CD8+ T cells are shown at different proliferation steps up to 7 days measuring the loss of CFSE. Naïve cells were treated with one of IPB2033-2044 together with DCs activated with Ova prior to the CFSE assay.
as §1, §2, §3, §4, §5
(§7) Naïve T cells were derived from LN/spleen from OTI or OTII mice. The MagniSort™ Mouse CD4 naïve or CD8 naïve T cell Enrichment Kit is designed for the magnetic separation of CD4 or CD8 naïve T cells by negative selection from mouse spleens or lymph nodes utilizing a biotinylated antibody cocktail and streptavidin-coated magnetic beads. Undesired cells are bound by antibody (Anti-Mouse CD8 or CD4/CD11b CD19/CD24/CD44/CD45R(B220)/CD49b(Integrin α 2)/Ly-6G (Gr-1)/γδ TCR/TER-119) and then magnetic beads that, when placed in a magnetic field, leave CD4 or CD8 naïve T cells untouched and free in solution. […]

CD4+ T cells = assay: CFSE proliferation assay of CD4+ T cells after interaction with Ova/adjuvant-matured bone marrow derived DCs (APC); format: cell-based, mice; details: for stimulating effect of CD4+ T cells versus controls with only antigen Ova: CFSE loss up to 7 days, DCs activated with Ova + 10 μg compound, FIG. 4A/4B; for capacity to induce antigen specific CD4+ T cell proliferation: DCs restimulated with Ovalbumin + 10 μg compound for 24 h, interaction with APC for 5 days
Source text: FIG. 3B: Cell proliferation tracked by CFSE dilution of CD4+ T cells after interaction with matured Antigen Presenting Cells (APC). With every cell division, the CFSE signal strength is approximately halved. The shown cell numbers indicate the ratio of proliferated live CD4+ T cells.
as §6, §1, §2, §3, §4, §5, §7

| SMILES | induction of unspecific proliferation in splenocytes (splenocytes) | stimulating effect of CD8+ T cells versus controls with only antigen Ova (CD8+ T cells) | stimulating effect of CD4+ T cells versus controls with only antigen Ova (CD4+ T cells) | toxicity against B cells (CD19+ B cells) | further results |
| --- | --- | --- | --- | --- | --- |
| CCCCCCCCCCCCCCCCCCCCCCCC(=O)N[C@@H](CO[C@H]1O[C@H](CO)[C@H](O)[C@H](O)[C@H]1O)[C@H](O)[C@H](O)CCCCC [OCH] |  |  |  |  | type of response elicited (Th1 / Th2) [1]: elicit a Th2-type response |
| CCCCCCCCCCCCCCNC(=O)CN(C(=O)[C@@H](Cc1ccccc1)NC(C)=O)[C@@H](CO[C@H]1OC(CO)[C@H](O)C(O)C1O)[C@H](O)[C@H](O)CCCCCCCCCCCCCC (some centres unmarked) [IPB 1904] | beneficial induction of unspecific proliferation |  |  |  | capacity to induce antigen specific CD19+ B cell proliferation (CD19+ B cells): particularly high capacity; also recorded: beneficial capacity |
| CCCCCCCCCCCCCC[C@@H](O)[C@@H](O)[C@H](CO[C@H]1OC(CO)[C@H](O)C(O)C1O)N(CC(=O)NCCCCCCCCCCCC)C(=O)CCCCCCCCCCCCC (some centres unmarked) [IPB 1901] | beneficial induction of unspecific proliferation | stimulating effect of CD8+ T cells beyond controls | stimulating effect of CD4+ T cells beyond controls | may show some toxicity against B cells | Stimulation index (SI) (splenocytes): 4 |
| CCCCCCCCCCCCCCCCCC(=O)N(CC(=O)NCCC(=O)OC(C)(C)C)[C@@H](CO[C@H]1OC(CO)[C@H](O)C(O)C1O)[C@H](O)[C@H](O)CCCCCCCCCCCCCC (some centres unmarked) [IPB 1909] |  |  |  |  | effect to induce antigen specific CD8+ T cell proliferation (CD8+ T cells; DCs restimulated with Ovalbumin + 10 μg compound for 24 h, interaction with APC for 5 days, FIG. 3C): strong effect; also recorded: beneficial effect; capacity to induce antigen specific CD4+ T cell proliferation (CD4+ T cells; FIG. 3B): high capacity; also recorded: beneficial capacity; capacity to induce antigen specific CD19+ B cell proliferation (CD19+ B cells): particularly high capacity; also recorded: beneficial capacity |
| CCCCCCCCCCCCCC[C@@H](O)[C@@H](O)[C@H](CO[C@H]1OC(CO)[C@H](O)C(O)C1O)N(CC(=O)NC1CCCCC1)C(=O)CCCCCCCCCCC (some centres unmarked) [IPB 1903] | beneficial induction of unspecific proliferation | stimulating effect of CD8+ T cells beyond controls | stimulating effect of CD4+ T cells beyond controls | may show some toxicity against B cells | capacity to induce antigen specific CD4+ T cell proliferation (CD4+ T cells; FIG. 3B): high capacity; also recorded: beneficial capacity; Stimulation index (SI) (splenocytes): > 10 |
| CCCCCCCCCCCCCC[C@@H](O)[C@@H](O)[C@H](CO[C@H]1O[C@H](CO)[C@H](O)[C@H](O)[C@H]1O)NC(=O)CCCCCCCCCCc1ccc(F)cc1 [7DW8-5] |  |  |  |  | type of response elicited (Th1 / Th2) [1]: elicit a Th1 response |
| CCCCCCCCCCCCCC[C@@H](O)[C@@H](O)[C@H](CO[C@H]1OC(CO)[C@H](O)C(O)C1O)N(CC(=O)NCc1ccccc1)C(=O)CCCCCCC (some centres unmarked) [IPB 1902] | beneficial induction of unspecific proliferation | stimulating effect of CD8+ T cells beyond controls | stimulating effect of CD4+ T cells beyond controls | may show some toxicity against B cells | toxicity against CD4+ T cells (CD4+ T cells; FIG. 3B, no improved effect over adjuvant controls): may show some toxicity against CD4+ T cells |
